Assay results from patent publication US20190159449A1, “USE OF NON-PROLINE CYCLIC AMINO ACIDS TO INCREASE THE TOLERANCE OF PLANTS TO CONDITIONS OF OSMOTIC STRESS” (CONSEJO SUPERIOR DE INVESTIGACIONES CIENTÍFICAS (CSIC), priority 2016, published 2019).
Marks after values point to notes of the source that are not given here.

Tests used:
Format in all cases: in vivo
[1] = test system: Arabidopsis thaliana; assay: Salt stress (50 mM NaCl) growth assay of hydroponically grown Arabidopsis thaliana after 24 h root treatment; conditions: for Fresh weight / RGR (relative growth rate) / S.I (sensitivity index) / % reduction RGR: 2.5 mM treatment 24 h; for Fresh weight: aerial part; for Effect on growth and tolerance to salt stress (in words): 2.5 mM treatment, 50 mM NaCl; for S.I (sensitivity index) / % reduction RGR: 7 days with 50 mM NaCl; for S.I (sensitivity index): S.I = DWs − DWc/DWc; for % reduction RGR: relative to control conditions
Experimental: The conditions described below were used as the base for all examples included below. The growing conditions, such as the nutrient solution and the substrate used have been optimized to perform this type of experiments. Likewise, the dose of NaCl used has been optimized for this type of experiments since 50 mM makes it possible to evaluate if a treatment is capable of increasing tolerance to salinity (Jiménez-Arias et al., 2015. Environmental and Experimental Botany 120, 23-30).
A hydroponic culture system was used for the cultivation of the Arabidopsis thaliana plants necessary for the assays. This system was established in hydroponics trays with 1.9 L capacity (Araponics®) wherein 18 plants were grown per container. A mixture of river sand with two different granulometries was used as physical substrate. The seeds were sowed in seed-holders, which were deposited during one week in a small greenhouse consisting of a high-density polyethylene tray with river sand (washed siliceous sand, with medium granulometry) with sterile distilled water covered with a transparent plastic sheet which was deposited in a growth chamber at 22±2° C., with a photoperiod of 16 hours of light (100-110 μmol m-2 s-1 of PAR) and with 100% relative humidity. After one week, the seed-holders with the seedlings were transferred to the hydroponics trays in the same photoperiod and light intensity conditions but with 60-70% of relative humidity. The seedlings were maintained without aeration during the first week, after this the solution (Table 1) was generously aerated using aeration pumps and was renewed every 7 days.
(§1) In this way, 21-day old plants were treated during 24 hours in nutrient solution enriched with a concentration of 2.5 mM of alanine. Subsequently, the plants were deposited in normal nutrient solution for 24 hours and they later grew for 7 days in nutrient solution with or without a supply of 50 mM of NaCl. This experiment was repeated twice, using 12 plants per experiment, with the value shown in table 2 being the average of 24 plants for each one of the conditions.
Subsequently, the wet weight of the aerial part of the plants was determined.
as §1, with “21-day” for “In this way, 21-day”, “pyroglutamic acid or pipecolinic acid.” for “alanine.”
The plants were deposited in nutrient solution enriched with one of the compounds indicated above for 24 hours and they later grew for 7 days in nutrient solution with a supply of 50 mM of NaCl. As control, the plants grown on nutrient solution and NaCl were used. This experiment was repeated twice, using 12 plants per experiment, with the value shown in table 2 being the average of 24 plants for each one of the conditions.
Two measurements were used in order to illustrate the defence to salt stress. First, the values for the sensitivity index (S.I) described by Saadallah et al. (2001, Agronomie 21, 627-634) is shown.
The greater the negative value of the S.I., the greater the negative effect of salinity on the plant. The second measurement is a percentage of reduction in the relative a growth rate of the plant subjected to conditions of salt stress.

[2] = test system: Solanum lycopersicum (tomato); assay: Salt stress growth assay of hydroponic tomato plants after 24 h root treatment; conditions: 2.5 mM; for Decrease in growth in saline conditions with respect to growth in the control solution: 7 days in NaCl solution, fresh weight; for Increase in tolerance compared with the proline treatment / Increase in tolerance compared with the control: saline conditions; for Increase in tolerance compared with the proline treatment: versus proline 2.5 mM; for Increase in tolerance compared with the control: versus reference group
Experimental: As an example, tomato (Solanum lycopersicum) of the variety Realeza pear was used. […] From the first day, the solution was generously aerated by air pumps (30 min per day). The plants were maintained during two days with this proportion of solution and distilled water, and then they were removed from the medium and placed, under the same conditions, in plastic containers during 24 hours with the different treatments in distilled water (table 5): After 24 hours, the plants were again introduced in the trays with the same proportion of distilled water/nutrient solution stated above and they were maintained like this for 48 hours. […] Then, the growth of treated and untreated plants was compared, in normal conditions and salinity conditions. For the statistical analysis, the data collected was subjected to the normality test of the Kolmogorov-Smirnov test with the Lilliefors correction. Levene's test was used to verify the homoscedasticity of the data. As the data behaved following a normal distribution, its measurements were compared by one-way ANOVA and the significant differences were calculated using the Bonferroni post hoc test. The statistical analyses were performed with the SSPS computer package, version 20 for Windows.

[3] = test system: Solanum lycopersicum (tomato); assay: Drought (water deficit) assay of tomato in greenhouse conditions; conditions: four root treatments at 2.5 mM, after 10 days of drought; for Net photosynthesis: versus drought reference
Experimental: The crop used was tomato (Solanum lycopersicum) of the “Gransol” capa negra variety. The experiment was performed in a glass greenhouse with four tables measuring 10 metres in length by 2 metres in width. Drip irrigation was used, supplied by self-compensated drippers to control the flow of water at all times.
5-week old seedings were transplanted to 2-litre capacity pots using a mixture of peat and river sand to facilitate drainage. In total, 120 tomato plants were used. Four treatments were performed on 40 plants after the transplant (with 15 days between each treatment), adding 50 ml of a 2.5 mM concentration of Pyroglutamic to each pot.
Another 40 plants were treated via root applications using 2.5 mM of pipecolinic acid. The remaining plants randomly distributed throughout the greenhouse were treated with distilled water by way of control. The drought assay commenced on completing the four treatments, which was performed by removing the dripper from the 20 plants randomly chosen for each one of the treatments. The plants were deprived of water for 10 days.
The relative water content of the leaf was estimated after 10 days of drought for each one of the treatments, in control conditions and drought conditions, using 15 leaves. The following formula was used for this:
R.W.C(%)/=[(Fw−Dw)/(Tw−Dw)]×100
With Fw: fresh weight; Dw: dry weight; Tw: turgor weight. RWC is the measurement most commonly used to estimate the possible water deficit a plant leaf has.
Furthermore, photosynthesis was estimated with the “Lc-pro sd” system (ADC Bioscientific). To do this, the tomato leaves were stimulated with a light source at 1000 μmol m-2 s-1, with this light intensity being previously estimated to achieve the maximum photosynthesis in our crop and conditions. To do this, the parameters of net photosynthesis (A) and evapotranspiration (E) were determined, calculating with them the efficiency in water use (A/E) as described by Lambers et al. (2008. Plant Physiological Ecology. 2nd edition. Springer, New York). The measurements were taken after 10 days of assay from six plants for each one of the treatments.
The data of the different variables were subjected to the normality test using the Kolmogorov-Smirnov test with the Lilliefors correction. Levene's test was used to verify the homoscedasticity of the data. As the data behaved following a normal distribution, its measurements were compared by one-way ANOVA and the significant differences were calculated using the Bonferroni post hoc test. The statistical analyses were performed with the SSPS computer package, version 20 for Windows.

[4] = 7 days in nutrient solution with 50 mM NaCl (saline conditions)
[5] = 7 days in nutrient solution without NaCl (optimal conditions)
[6] = 7 days with 50 mM NaCl (saline conditions)
[7] = 7 days without NaCl (optimal conditions)

Row | Structure (SMILES) | Fresh weight [1, 4] [mg plant] | Fresh weight [1, 5] [mg plant] | RGR (relative growth rate) [1, 6] | RGR (relative growth rate) [1, 7] | Effect on growth and tolerance to salt stress (in words) [1] | Decrease in growth in saline conditions with respect to growth in the control solution [2] [%] | Decrease in growth under control conditions with respect to the reference ([2]; 7 days, control solution without salt, plant weight) [%] | S.I (sensitivity index) [1] | % reduction RGR [1] | Increase in tolerance compared with the proline treatment [2] [%] | Increase in tolerance compared with the control [2] [%] | Decrease in relative water content of the leaf with respect to its control [3] | Net photosynthesis [3]
1 | C[C@H](N)C(=O)O [Alanine, alanine, reference compound] | 36 ± 2 | 142 ± 8 | 0.11** | 0.58 | not capable of promoting growth, nor increasing tolerance to salinity |  |  |  |  |  |  |  | 
2 | O=C(O)[C@@H]1C[C@@H](O)CN1 [Hydroxyproline, hydroxyproline, reference compound] |  |  |  |  |  | 17 | 35 | −0.25** | 24.34** % |  |  |  | 
3 | O=C(O)C1CCCCN1 (stereo not shown) [Pipecolinic acid, pipecolinic acid] | 133.9 ± 21 | 145.9 ± 22 | 0.45 | 0.46 | effect on the increased tolerance to salt stress is proven | 7 |  | −0.07** | 8.12** % | 83 | 78 | 5.1% | greater than the drought reference plants
4 | O=C(O)[C@@H]1CCCN1 [Proline, proline] |  |  |  |  |  | 42 |  |  |  |  |  |  | 
5 | O=C1CC[C@@H](C(=O)O)N1 [Pyroglutamic acid, pyroglutamic acid] | 170.4 ± 15 | 183.9 ± 15 | 0.49 | 0.56 | effect on the increased tolerance to salt stress is proven | 9 |  | −0.1** | 10.22** % | 78 | 72 | did not show this decrease | greater than the drought reference plants
